Test results: US20230150970A1, “AMINOPYRIMIDINE DERIVATIVES AND THEIR USE AS ARYL HYDROCARBON RECEPTOR MODULATORS” (DONG-A ST CO., LTD., priority 2020, published 2023)

Biological target: T1, AhR (Homo sapiens, UniProt P35869)
T1 sequence (P35869 11-848): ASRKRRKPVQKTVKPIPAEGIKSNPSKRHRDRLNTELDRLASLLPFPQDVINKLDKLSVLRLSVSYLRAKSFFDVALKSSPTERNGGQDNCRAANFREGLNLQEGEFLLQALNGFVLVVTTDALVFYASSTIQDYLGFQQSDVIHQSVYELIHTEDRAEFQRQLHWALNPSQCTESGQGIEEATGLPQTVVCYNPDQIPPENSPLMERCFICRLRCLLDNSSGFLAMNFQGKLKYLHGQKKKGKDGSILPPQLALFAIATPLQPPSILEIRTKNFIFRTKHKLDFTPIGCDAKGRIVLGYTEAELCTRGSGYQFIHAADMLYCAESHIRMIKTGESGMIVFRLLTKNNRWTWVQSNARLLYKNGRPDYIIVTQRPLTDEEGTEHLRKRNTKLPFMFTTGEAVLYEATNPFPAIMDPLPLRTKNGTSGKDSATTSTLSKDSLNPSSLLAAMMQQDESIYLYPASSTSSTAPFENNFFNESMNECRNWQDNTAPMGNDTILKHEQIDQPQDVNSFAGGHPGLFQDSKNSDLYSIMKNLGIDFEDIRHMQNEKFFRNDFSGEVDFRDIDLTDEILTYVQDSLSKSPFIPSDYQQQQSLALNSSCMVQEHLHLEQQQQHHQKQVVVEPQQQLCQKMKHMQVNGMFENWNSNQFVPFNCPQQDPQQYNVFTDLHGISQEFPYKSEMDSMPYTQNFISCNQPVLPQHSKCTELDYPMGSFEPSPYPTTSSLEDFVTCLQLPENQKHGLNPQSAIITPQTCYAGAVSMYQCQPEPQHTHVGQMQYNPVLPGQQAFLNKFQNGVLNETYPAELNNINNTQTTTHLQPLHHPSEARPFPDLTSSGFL
Assay: In Vitro Assay 1: XRE-luciferase reporter assay, antagonism in human cell line (HepG2)
Settings: Assay 1: AhR-Luc Human Antagonism (IC50, nM), values marked *: kynurenine 50 μM, 6 hours

Q: OCC1CCCCN1c1cc(-c2ccc(Cl)cc2)nc(-c2cccnc2)n1 (centres unmarked) [Example 36, (1-(6-(4-chlorophenyl)-2-(pyridin-3-yl)pyrimidin-4-yl)piperidin-2-yl)methanol] was tested. Which IC50 did it give?
A: 10 to 100 nM

Q: Which IC50 does the source give for OCCC1CCCCN1c1cc(-c2ccc(Cl)cc2)nc(-c2cccnc2)n1 (centres unmarked) [Example 37, 2-(1-(6-(4-chlorophenyl)-2-(pyridin-3-yl)pyrimidin-4-yl)piperidin-2-yl)ethan-1-ol] here?
A: > 1000 nM

Q: How did the IC50 turn out when O[C@@H]1CCCN(c2cc(-c3ccc(Cl)cc3)nc(-c3cccnc3)n2)C1 [Example 38, (R)-1-(6-(4-chlorophenyl)-2-(pyridin-3-yl)pyrimidin-4-yl)piperidin-3-ol] was run?
A: < 10 nM

Q: For OC1CCCN(c2cc(-c3ccc(Cl)cc3)nc(-c3cccnc3)n2)C1 (centres unmarked) [Example 39, 1-(6-(4-chlorophenyl)-2-(pyridin-3-yl)pyrimidin-4-yl)piperidin-3-ol], which IC50 is on record?
A: 10 to 100 nM

Q: With OCC1CCCN(c2cc(-c3ccc(Cl)cc3)nc(-c3cccnc3)n2)C1 (centres unmarked) [Example 40, (1-(6-(4-chlorophenyl)-2-(pyridin-3-yl)pyrimidin-4-yl)piperidin-3-yl)methanol] as the molecule, how does the IC50 read?
A: 10 to 100 nM

Q: With OC1CCN(c2cc(-c3ccc(Cl)cc3)nc(-c3cccnc3)n2)CC1 [Example 41, 1-(6-(4-chlorophenyl)-2-(pyridin-3-yl)pyrimidin-4-yl)piperidin-4-ol] as the molecule, how does the IC50 read?
A: < 10 nM

Q: OCCCC1CCN(c2cc(-c3ccc(Cl)cc3)nc(-c3cccnc3)n2)CC1 [Example 44, 3-(1-(6-(4-chlorophenyl)-2-(pyridin-3-yl)pyrimidin-4-yl)piperidin-4-yl)propan-1-ol] was tested. Which IC50 did it give?
A: < 10 nM

Q: For COC1CCN(c2cc(-c3ccc(Cl)cc3)nc(-c3cccnc3)n2)CC1 [Example 45, 4-(4-chlorophenyl)-6-(4-methoxypiperidin-1-yl)-2-(pyridin-3-yl)pyrimidine], which IC50 is on record?
A: 10 to 100 nM

Q: Which IC50 does the source give for Clc1ccc(-c2cc(N3CCCCC3)nc(-c3cccnc3)n2)cc1 [Example 46, 4-(4-chlorophenyl)-6-(piperidin-1-yl)-2-(pyridin-3-yl)pyrimidine] here?
A: 100 to 1000 nM

Q: With CC1CCCCN1c1cc(-c2ccc(Cl)cc2)nc(-c2cccnc2)n1 (centres unmarked) [Example 47, 4-(4-chlorophenyl)-6-(2-methylpiperidin-1-yl)-2-(pyridin-3-yl)pyrimidine] as the molecule, how does the IC50 read?
A: > 1000 nM

Q: With CC1CCCN(c2cc(-c3ccc(Cl)cc3)nc(-c3cccnc3)n2)C1 (centres unmarked) [Example 48, 4-(4-chlorophenyl)-6-(3-methylpiperidin-1-yl)-2-(pyridin-3-yl)pyrimidine] as the molecule, how does the IC50 read?
A: > 1000 nM

Q: With CC1CCCC(C)N1c1cc(-c2ccc(Cl)cc2)nc(-c2cccnc2)n1 (centres unmarked) [Example 49, 4-(4-chlorophenyl)-6-(2,6-dimethylpiperidin-1-yl)-2-(pyridin-3-yl)pyrimidine] as the molecule, how does the IC50 read?
A: > 1000 nM

Q: Which IC50 does the source give for CC1CC(C)CN(c2cc(-c3ccc(Cl)cc3)nc(-c3cccnc3)n2)C1 (centres unmarked) [Example 50, 4-(4-chlorophenyl)-6-(3,5-dimethylpiperidin-1-yl)-2-(pyridin-3-yl)pyrimidine] here?
A: > 1000 nM

Q: Which IC50 does the source give for FC1(F)CCCN(c2cc(-c3ccc(Cl)cc3)nc(-c3cccnc3)n2)C1 [Example 51, 4-(4-chlorophenyl)-6-(3,3-difluoropiperidin-1-yl)-2-(pyridin-3-yl)pyrimidine] here?
A: 100 to 1000 nM

Q: How did the IC50 turn out when FC(F)(F)C1CCCN(c2cc(-c3ccc(Cl)cc3)nc(-c3cccnc3)n2)C1 (centres unmarked) [Example 52, 4-(4-chlorophenyl)-2-(pyridin-3-yl)-6-(3-(trifluoromethyl)piperidin-1-yl)pyrimidine] was run?
A: 100 to 1000 nM

Q: How did the IC50 turn out when CCC1CCCN(c2cc(-c3ccc(Cl)cc3)nc(-c3cccnc3)n2)C1 (centres unmarked) [Example 53, 4-(4-chlorophenyl)-6-(3-ethylpiperidin-1-yl)-2-(pyridin-3-yl)pyrimidine] was run?
A: > 1000 nM

Q: How did the IC50 turn out when Clc1ccc(-c2cc(NC3CCNCC3)nc(-c3cccnc3)n2)cc1 [Example 54, 6-(4-chlorophenyl)-N-(piperidin-4-yl)-2-(pyridin-3-yl)pyrimidin-4-amine] was run?
A: > 1000 nM

Q: With Clc1ccc(-c2cc(NCC3CCCNC3)nc(-c3cccnc3)n2)cc1 (centres unmarked) [Example 55, 6-(4-chlorophenyl)-N-(piperidin-3-ylmethyl)-2-(pyridin-3-yl)pyrimidin-4-amine] as the molecule, how does the IC50 read?
A: > 1000 nM

Q: With Clc1ccc(-c2cc(NCC3CCNCC3)nc(-c3cccnc3)n2)cc1 [Example 56, 6-(4-chlorophenyl)-N-(piperidin-4-ylmethyl)-2-(pyridin-3-yl)pyrimidin-4-amine] as the molecule, how does the IC50 read?
A: 100 to 1000 nM

Q: Which IC50 does the source give for CN1CCC(Nc2cc(-c3ccc(Cl)cc3)nc(-c3cccnc3)n2)CC1 [Example 57, 6-(4-chlorophenyl)-N-(1-methylpiperidin-4-yl)-2-(pyridin-3-yl)pyrimidin-4-amine] here?
A: > 1000 nM

Q: For Clc1ccc(-c2cc(NCCC3CCNCC3)nc(-c3cccnc3)n2)cc1 [Example 58, 6-(4-chlorophenyl)-N-(2-(piperidin-4-yl)ethyl)-2-(pyridin-3-yl)pyrimidin-4-amine], which IC50 is on record?
A: > 1000 nM

Q: Which IC50 does the source give for NCC1CCCCN1c1cc(-c2ccc(Cl)cc2)nc(-c2cccnc2)n1 (centres unmarked) [Example 59, (1-(6-(4-chlorophenyl)-2-(pyridin-3-yl)pyrimidin-4-yl)piperidin-2-yl)methanamine] here?
A: > 1000 nM

Q: Which IC50 does the source give for N[C@@H]1CCCN(c2cc(-c3ccc(Cl)cc3)nc(-c3cccnc3)n2)C1 [Example 60, (R)-1-(6-(4-chlorophenyl)-2-(pyridin-3-yl)pyrimidin-4-yl)piperidin-3-amine] here?
A: > 1000 nM

Q: With N[C@H]1CCCN(c2cc(-c3ccc(Cl)cc3)nc(-c3cccnc3)n2)C1 [Example 61, (S)-1-(6-(4-chlorophenyl)-2-(pyridin-3-yl)pyrimidin-4-yl)piperidin-3-amine] as the molecule, how does the IC50 read?
A: > 1000 nM

Q: For NCC1CCCN(c2cc(-c3ccc(Cl)cc3)nc(-c3cccnc3)n2)C1 (centres unmarked) [Example 62, (1-(6-(4-chlorophenyl)-2-(pyridin-3-yl)pyrimidin-4-yl)piperidin-3-yl)methanamine], which IC50 is on record?
A: > 1000 nM

Q: With NC[C@@H]1CCCN(c2cc(-c3ccc(Cl)cc3)nc(-c3cccnc3)n2)C1 [Example 63, (S)-(1-(6-(4-chlorophenyl)-2-(pyridin-3-yl)pyrimidin-4-yl)piperidin-3-yl)methanamine] as the molecule, how does the IC50 read?
A: > 1000 nM

Q: NC1CCN(c2cc(-c3ccc(Cl)cc3)nc(-c3cccnc3)n2)CC1 [Example 64, 1-(6-(4-chlorophenyl)-2-(pyridin-3-yl)pyrimidin-4-yl)piperidin-4-amine] was tested. Which IC50 did it give?
A: 100 to 1000 nM

Q: How did the IC50 turn out when NCC1CCN(c2cc(-c3ccc(Cl)cc3)nc(-c3cccnc3)n2)CC1 [Example 65, (1-(6-(4-chlorophenyl)-2-(pyridin-3-yl)pyrimidin-4-yl)piperidin-4-yl)methanamine] was run?
A: 100 to 1000 nM

Q: Which IC50 does the source give for O[C@@H]1CCC[C@@H]1Nc1cc(-c2ccc(Cl)cc2)nc(-c2cccnc2)n1 [Example 66, (1R,2S)-2-((6-(4-chlorophenyl)-2-(pyridin-3-yl)pyrimidin-4-yl)amino)cyclopentan-1-ol] here?
A: > 1000 nM

Q: O[C@H]1CCC[C@@H]1Nc1cc(-c2ccc(Cl)cc2)nc(-c2cccnc2)n1 [Example 67, (1S,2S)-2-((6-(4-chlorophenyl)-2-(pyridin-3-yl)pyrimidin-4-yl)amino)cyclopentan-1-ol] was tested. Which IC50 did it give?
A: 100 to 1000 nM

Q: How did the IC50 turn out when O[C@@H]1CCCC[C@H]1Nc1cc(-c2ccc(Cl)cc2)nc(-c2cccnc2)n1 [Example 69, (1R,2R)-2-((6-(4-chlorophenyl)-2-(pyridin-3-yl)pyrimidin-4-yl)amino)cyclohexan-1-ol] was run?
A: 100 to 1000 nM

Q: Which IC50 does the source give for Clc1ccc(-c2cc(N3CCOCC3)nc(-c3cccnc3)n2)cc1 [Example 71, 4-(6-(4-chlorophenyl)-2-(pyridin-3-yl)pyrimidin-4-yl)morpholine] here?
A: 10 to 100 nM

Q: Clc1ccc(-c2cc(NCC3CNCCO3)nc(-c3cccnc3)n2)cc1 (centres unmarked) [Example 72, 6-(4-chlorophenyl)-N-(morpholin-2-ylmethyl)-2-(pyridin-3-yl)pyrimidin-4-amine] was tested. Which IC50 did it give?
A: > 1000 nM

Q: How did the IC50 turn out when Clc1ccc(-c2cc(N3CCC(N4CCOCC4)C3)nc(-c3cccnc3)n2)cc1 (centres unmarked) [Example 73, 4-(1-(6-(4-chlorophenyl)-2-(pyridin-3-yl)pyrimidin-4-yl)pyrrolidin-3-yl)morpholine] was run?
A: > 1000 nM

Q: How did the IC50 turn out when Clc1ccc(-c2cc(N3CCSCC3)nc(-c3cccnc3)n2)cc1 [Example 74, 4-(6-(4-chlorophenyl)-2-(pyridin-3-yl)pyrimidin-4-yl)thiomorpholine] was run?
A: 100 to 1000 nM

Q: How did the IC50 turn out when Clc1ccc(-c2cc(NCCCN3CCOCC3)nc(-c3cccnc3)n2)cc1 [Example 75, 6-(4-chlorophenyl)-N-(3-morpholinopropyl)-2-(pyridin-3-yl)pyrimidin-4-amine] was run?
A: > 1000 nM

Q: With C[C@@H]1CNCCN1c1cc(-c2ccc(Cl)cc2)nc(-c2cccnc2)n1 [Example 76, (R)-4-(4-chlorophenyl)-6-(2-methylpiperazin-1-yl)-2-(pyridin-3-yl)pyrimidine] as the molecule, how does the IC50 read?
A: > 1000 nM

Q: How did the IC50 turn out when C[C@@H]1CN(C(=O)c2ccccc2)CCN1c1cc(-c2ccc(Cl)cc2)nc(-c2cccnc2)n1 [Example 77, (R)-(4-(6-(4-chlorophenyl)-2-(pyridin-3-yl)pyrimidin-4-yl)-3-methylpiperazin-1-yl)(phenyl)methanone] was run?
A: > 1000 nM
